Measurements as given in US12466854B2, “Peptide useful for the transport of molecules through cell barriers” (UNIVERSITÉ GRENOBLE ALPES, priority 2022, dated 2025).

Test system: mice
Assay: body temperature of mice after intravenous injection of peptides (hypothermia as reporter for crossing the BBB)
Format: in vivo
Conditions: 2.5 mmol/kg intravenously; for hypothermia (variation in body temperature): monitored over 90 minutes
Protocol: Body temperature was monitored using Anipill® capsules previously implanted intraperitoneally.
The monitoring was carried out over 90 minutes.

| Substance | time following injection at which hypothermia was observed | hypothermia (variation in body temperature) |
| --- | --- | --- |
| TAT-NT: reference cell penetration peptide TAT fused to neurotensin, GRKKRRQRRRPQRRPYIL (SEQ ID NO: 8), positive control [reference compound] | 30 min | approximately 1 degree Celsius |
| TB peptide: cell penetrating peptide of amino acid sequence RQRIWFQNRRRSRKIKK (SEQ ID NO: 1) |  | no signs of hypothermia |
| TB-NT: TB peptide fused to neurotensin, sequence RQRIWFQNRRRSRKIKKRRPYIL (SEQ ID NO: 7) | 35 min | approximately 3 degree Celsius |
